Experiments:
[1] = target: T1, CypA (Homo sapiens, UniProt P62937); experiment: SPR-based binding affinity assay; details: pH 7.4
[2] = target: T1, CypA; experiment: biochemical
[3] = system: mouse spleen cells induced by Con A; experiment: Proliferation of mouse spleen cells induced by Con A; type: cell-based; details: 72 h, read-out: Inhibitory rate (%)

T1 sequence (P62937 whole entry): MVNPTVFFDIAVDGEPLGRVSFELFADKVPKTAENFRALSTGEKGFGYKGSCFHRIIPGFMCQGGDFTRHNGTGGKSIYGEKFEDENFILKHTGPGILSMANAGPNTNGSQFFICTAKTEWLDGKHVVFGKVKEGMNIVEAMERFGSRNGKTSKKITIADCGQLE

Structure (SMILES)	Kd [1] [µM]	% inhibition at 10 μM [2] [%]	further results
Cc1noc(NS(=O)(=O)c2ccc(NC(=O)c3ccnc(-c4ccc(Br)cc4)c3)cc2)c1C [Compound 16l, 4-(2-(4-Bromophenyl)-pyridine-4-carboxamido)-N-(3,4-dimethyl-isoxazol-5-yl) benzenesulfonamide]	89.5		
O=C(Nc1ccc(S(=O)(=O)Nc2cnc3ccccc3n2)cc1)c1cc(-c2cccc(Br)c2)nc2ccccc12 [Compound 16j, 4-(2-(3-Bromophenyl)-quinoline-4-carboxamido)-N-quinoxalin-2-yl benzenesulfonamide]	3.13	36.0	
O=C(Nc1ccc(S(=O)(=O)Nc2cnc3ccccc3n2)cc1)c1ccccc1 [Compound 17b, 4-Benzamido-N-quinoxalin-2-yl benzenesulfonamide]	23.4	5.6	
Cc1noc(NS(=O)(=O)c2ccc(NC(=O)c3cc(-c4cccs4)nc4ccccc34)cc2)c1C [Compound 16f, 4-(2-Thiophen-2-yl-quinoline-4-carboxamido)-N-(3,4-dimethyl-isoxazol-5-yl) benzenesulfonamide]	91.3	30.0	
Cc1ccccc1-c1cc(C(=O)Nc2ccc(S(=O)(=O)Nc3onc(C)c3C)cc2)ccn1 [Compound 16p, 4-(2-(2-Methylphenyl)-pyridine-4-carboxamido)-N-(3,4-dimethyl-isoxazol-5-yl) benzenesulfonamide]	7.61		
Cc1noc(NS(=O)(=O)c2ccc(NC(=O)Cc3ccc(Cl)cc3)cc2)c1C [Compound 17d, 4-(4-Chlorophenylacetamido)-N-(3,4-dimethyl-isoxazol-5-yl) benzenesulfonamide]	0.35		
Cc1ccnc(NS(=O)(=O)c2ccc(NC(=O)c3ccnc(-c4ccccc4C)c3)cc2)n1 [Compound 16q, 4-(2-(2-Methylphenyl)-pyridine-4-carboxamido)-N-(4-methyl-pyrimidin-2-yl) benzenesulfonamide]	340		
Cc1noc(NS(=O)(=O)c2ccc(NC(=O)c3ccnc(-c4ccc(F)cc4)c3)cc2)c1C [Compound 16o, 4-(2-(4-Fluorophenyl)-pyridine-4-carboxamido)-N-(3,4-dimethyl-isoxazol-5-yl) benzenesulfonamide]	42.4	26.0	
Cc1noc(NS(=O)(=O)c2ccc(NC(=O)c3ccnc(-c4ccc(Cl)cc4)c3)cc2)c1C [Compound 16n, 4-(2-(4-Chlorophenyl)-pyridine-4-carboxamido)-N-(3,4-dimethyl-isoxazol-5-yl) benzenesulfonamide]	1.86		
Cc1noc(NS(=O)(=O)c2ccc(NC(=O)c3cc(-c4ccc(Br)cc4)nc4ccccc34)cc2)c1C [Compound 16c, 4-(2-(4-Bromophenyl)-quinoline-4-carboxamido)-N-(3,4-dimethyl-isoxazol-5-yl) benzenesulfonamide]	4.11	10.0	
O=C(Cc1ccc(Cl)cc1Cl)Nc1ccc(S(=O)(=O)Nc2cnc3ccccc3n2)cc1 [Compound 17a, 4-(2,4-Dichlorophenylacetamido)-N-quinoxalin-2-yl benzenesulfonamide]	37.7		
Cc1noc(NS(=O)(=O)c2ccc(NC(=O)c3cc(-c4ccccc4Br)nc4ccccc34)cc2)c1C [Compound 16d, 4-(2-(2-Bromophenyl)-quinoline-4-carboxamido)-N-(3,4-dimethyl-isoxazol-5-yl) benzenesulfonamide]	223	15.0	
Cc1noc(NS(=O)(=O)c2ccc(NC(=O)c3cc(-c4cccc(Br)c4)nc4ccc(F)cc34)cc2)c1C [Compound 16i, 4-(2-(3-Bromophenyl)-6-fluoro-quinoline-4-carboxamido)-N-(3,4-dimethyl-isoxazol-5-yl) benzenesulfonamide]	2.25	32.0	
Cc1noc(NS(=O)(=O)c2ccc(NC(=O)c3cc(-c4cccc(F)c4)nc4ccccc34)cc2)c1C [Compound 16a, 4-(2-(3-Fluorophenyl)-quinoline-4-carboxamido)-N-(3,4-dimethyl-isoxazol-5-yl) benzenesulfonamide]	10.2	18.0	
O=C(CCc1ccccc1)Nc1ccc(S(=O)(=O)Nc2cnc3ccccc3n2)cc1 [Compound 17c, 4-(3-Phenyl-propionamido)-N-quinoxalin-2-yl benzenesulfonamide]	1.06		
Cc1noc(NS(=O)(=O)c2ccc(NC(=O)c3cc(C4CCCCC4)nc4ccccc34)cc2)c1C [Compound 16g, 4-(2-Cyclohexanyl-quinoline-4-carboxamido)-N-(3,4-dimethyl-isoxazol-5-yl) benzenesulfonamide]	1.79		
Cc1noc(NS(=O)(=O)c2ccc(NC(=O)c3ccnc(-c4ccccc4)c3)cc2)c1C [Compound 16m, 4-(2-Phenyl-pyridine-4-carboxamido)-N-(3,4-dimethyl-isoxazol-5-yl) benzenesulfonamide]	14.5		
Cc1noc(NS(=O)(=O)c2ccc(NC(=O)c3cc(-c4ccncc4)nc4ccccc34)cc2)c1C [Compound 16e, 4-(2-Pyridin-4-yl-quinoline-4-carboxamido)-N-(3,4-dimethyl-isoxazol-5-yl) benzenesulfonamide]	10.6	40.0	
COC(=O)c1cc(Cc2ccc(NCc3ccccc3)c(C(=O)OC)c2)ccc1NCc1ccccc1 [Compound 18g, 6,6′-Bis-benzylamino-3,3′-methanediyl-di-benzoic acid dimethyl ester]			IC50 [2]: 6.23 µM; inhibition at 1 µM [3]: 1.2 ± 6.41%; inhibition at 10 µM [3]: 7.46 ± 4.13%; inhibition at 100 µM [3]: 28.8 ± 3.39%

— article PMC7119052 (Bioorganic & Medicinal Chemistry, 2005)
